# pIC50: −log10 of the molar value. “And” between values parts separate entries of the source, which are not always exact repeats. Identical values can stand only once.
# Tested on: 233499-124-R-J3-PDC complex spheroid growth
# Assay: Anticancer human tumor 233499-124-R-J3-PDC patient-derived colon adenocarcinoma cell line growth inhibition [AhR]
# Settings: for viability, T/C: stronger effect = lower value
# Outline: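 Spheroids combined tumor cells with HUVEC endothelial cells and human MSCs as stroma. AhR antagonists were paired with standard or investigational drugs, each dosed in half-log steps down from near clinical Cmax, or from 10 microM where Cmax was unknown.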
# [1] = curve of first compound, second compound 0.1 µM
# [2] = curve of first compound, second compound 0.316 µM
# [3] = curve of first compound, second compound 1 µM
# [4] = curve of first compound, second compound 3.16 µM
# [5] = curve of first compound, second compound 10 µM
# [6] = second compound 0.1 µM, first compound 0.0316 µM
# [7] = second compound 0.1 µM, first compound 0.1 µM
# [8] = second compound 0.316 µM, first compound 0.0316 µM
# [9] = second compound 0.316 µM, first compound 0.1 µM
# [10] = second compound 1 µM, first compound 0.0316 µM
# [11] = second compound 1 µM, first compound 0.1 µM
# [12] = second compound 3.16 µM, first compound 0.0316 µM
# [13] = second compound 3.16 µM, first compound 0.1 µM
# [14] = second compound 10 µM, first compound 0.0316 µM
# [15] = second compound 10 µM, first compound 0.1 µM
# 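Note: spheroids exposed to agents for seven days before reading.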
smiles,measurement,setting,value
CC[C@@]1(O)C(=O)OCc2c1cc1n(c2=O)Cc2cc3c(CN(C)C)c(O)ccc3nc2-1 + CC(CO)NC(=O)c1cc(-c2ccc(Cl)cc2)nn(-c2cnn(C)c2)c1=O,pIC50,[1],< 7.00
same,pIC50,[2],< 7.00
same,pIC50,[3],< 7.00
same,pIC50,[4],< 7.00
same,pIC50,[5],< 7.00
same,"viability, T/C","second compound 0.1 µM, first compound 0.000316 µM",99.5%
same,"viability, T/C","second compound 0.1 µM, first compound 0.001 µM",92.5%
same,"viability, T/C","second compound 0.1 µM, first compound 0.00316 µM",95.3%
same,"viability, T/C","second compound 0.1 µM, first compound 0.01 µM",87.2%
same,"viability, T/C",[6],84.1%
same,"viability, T/C",[7],57.7%
same,"viability, T/C","second compound 0.316 µM, first compound 0.000316 µM",87.4%
same,"viability, T/C","second compound 0.316 µM, first compound 0.001 µM",94.6%
same,"viability, T/C","second compound 0.316 µM, first compound 0.00316 µM",89%
same,"viability, T/C","second compound 0.316 µM, first compound 0.01 µM",99.5%
same,"viability, T/C",[8],89.6%
same,"viability, T/C",[9],68.9%
same,"viability, T/C","second compound 1 µM, first compound 0.000316 µM",93%
same,"viability, T/C","second compound 1 µM, first compound 0.001 µM",90%
same,"viability, T/C","second compound 1 µM, first compound 0.00316 µM",89.3%
same,"viability, T/C","second compound 1 µM, first compound 0.01 µM",88.8%
same,"viability, T/C",[10],81.9%
same,"viability, T/C",[11],65.3%
same,"viability, T/C","second compound 3.16 µM, first compound 0.000316 µM",81.3%
same,"viability, T/C","second compound 3.16 µM, first compound 0.001 µM",82.3%
same,"viability, T/C","second compound 3.16 µM, first compound 0.00316 µM",84.6%
same,"viability, T/C","second compound 3.16 µM, first compound 0.01 µM",99.6%
same,"viability, T/C",[12],88%
same,"viability, T/C",[13],75%
same,"viability, T/C","second compound 10 µM, first compound 0.000316 µM",81.5%
same,"viability, T/C","second compound 10 µM, first compound 0.001 µM",80.1%
same,"viability, T/C","second compound 10 µM, first compound 0.00316 µM",81.9%
same,"viability, T/C","second compound 10 µM, first compound 0.01 µM",68.6%
same,"viability, T/C",[14],54.9%
same,"viability, T/C",[15],56.1%
CCc1c2c(nc3ccc(O)cc13)-c1cc3c(c(=O)n1C2)COC(=O)[C@]3(O)CC,"viability, T/C",compound 0.000949 µM,117% and 96.2% and 99.4%
same,"viability, T/C",compound 0.003 µM,93.8% and 87.6% and 85.8%
same,"viability, T/C",compound 0.00949 µM,89.5% and 85.3% and 77.4%
same,"viability, T/C",compound 0.03 µM,69.6% and 75.1% and 56.9%
same,"viability, T/C",compound 0.0949 µM,84.1% and 84% and 77.8%
same,"viability, T/C",compound 0.3 µM,98.5% and 95.3% and 73.3%
same,pIC50,curve of compound,< 6.52
CC1COCCN1c1cc(C2(S(C)(=N)=O)CC2)nc(-c2ccnc3[nH]ccc23)n1 (configuration not stated) + CC(CO)NC(=O)c1cc(-c2ccc(Cl)cc2)nn(-c2cnn(C)c2)c1=O,pIC50,[1],< 5.00
same,pIC50,[2],< 5.00
same,pIC50,[3],< 5.00
same,pIC50,[4],< 5.00
same,pIC50,[5],< 5.00
same,"viability, T/C",[6],101%
same,"viability, T/C",[7],97.2%
same,"viability, T/C","second compound 0.1 µM, first compound 0.316 µM",94.2%
same,"viability, T/C","second compound 0.1 µM, first compound 1 µM",91%
same,"viability, T/C","second compound 0.1 µM, first compound 3.16 µM",75.8%
same,"viability, T/C","second compound 0.1 µM, first compound 10 µM",74.1%
same,"viability, T/C",[8],88.2%
same,"viability, T/C",[9],89.1%
same,"viability, T/C","second compound 0.316 µM, first compound 0.316 µM",97.3%
same,"viability, T/C","second compound 0.316 µM, first compound 1 µM",83%
same,"viability, T/C","second compound 0.316 µM, first compound 3.16 µM",87.4%
same,"viability, T/C","second compound 0.316 µM, first compound 10 µM",72.1%
same,"viability, T/C",[10],79.7%
same,"viability, T/C",[11],96.2%
same,"viability, T/C","second compound 1 µM, first compound 0.316 µM",90.3%
same,"viability, T/C","second compound 1 µM, first compound 1 µM",92.3%
same,"viability, T/C","second compound 1 µM, first compound 3.16 µM",86.9%
same,"viability, T/C","second compound 1 µM, first compound 10 µM",69%
same,"viability, T/C",[12],98.8%
same,"viability, T/C",[13],95.8%
same,"viability, T/C","second compound 3.16 µM, first compound 0.316 µM",91.3%
same,"viability, T/C","second compound 3.16 µM, first compound 1 µM",85.9%
same,"viability, T/C","second compound 3.16 µM, first compound 3.16 µM",82.5%
same,"viability, T/C","second compound 3.16 µM, first compound 10 µM",68.3%
same,"viability, T/C",[14],72.5%
same,"viability, T/C",[15],79%
same,"viability, T/C","second compound 10 µM, first compound 0.316 µM",82.2%
same,"viability, T/C","second compound 10 µM, first compound 1 µM",79.5%
same,"viability, T/C","second compound 10 µM, first compound 3.16 µM",61.8%
same,"viability, T/C","second compound 10 µM, first compound 10 µM",56.6%
CCc1c2c(nc3ccc(O)cc13)-c1cc3c(c(=O)n1C2)COC(=O)[C@]3(O)CC + CC(CO)NC(=O)c1cc(-c2ccc(Cl)cc2)nn(-c2cnn(C)c2)c1=O,pIC50,[1],6.52
same,pIC50,[2],< 6.52
same,pIC50,[3],< 6.52
same,pIC50,[4],< 6.52
same,pIC50,[5],< 6.52
same,"viability, T/C","second compound 0.1 µM, first compound 0.000949 µM",87.3%
same,"viability, T/C","second compound 0.1 µM, first compound 0.003 µM",98.9%
same,"viability, T/C","second compound 0.1 µM, first compound 0.00949 µM",73.4%
same,"viability, T/C","second compound 0.1 µM, first compound 0.03 µM",50.5%
same,"viability, T/C","second compound 0.1 µM, first compound 0.0949 µM",60.6%
same,"viability, T/C","second compound 0.1 µM, first compound 0.3 µM",55.1%
same,"viability, T/C","second compound 0.316 µM, first compound 0.000949 µM",108%
same,"viability, T/C","second compound 0.316 µM, first compound 0.003 µM",105%
same,"viability, T/C","second compound 0.316 µM, first compound 0.00949 µM",76.4%
same,"viability, T/C","second compound 0.316 µM, first compound 0.03 µM",56.2%
same,"viability, T/C","second compound 0.316 µM, first compound 0.0949 µM",57.9%
same,"viability, T/C","second compound 0.316 µM, first compound 0.3 µM",66.4%
same,"viability, T/C","second compound 1 µM, first compound 0.000949 µM",103%
same,"viability, T/C","second compound 1 µM, first compound 0.003 µM",94.4%
same,"viability, T/C","second compound 1 µM, first compound 0.00949 µM",80.5%
same,"viability, T/C","second compound 1 µM, first compound 0.03 µM",64.7%
same,"viability, T/C","second compound 1 µM, first compound 0.0949 µM",57.9%
same,"viability, T/C","second compound 1 µM, first compound 0.3 µM",62.5%
same,"viability, T/C","second compound 3.16 µM, first compound 0.000949 µM",92.8%
same,"viability, T/C","second compound 3.16 µM, first compound 0.003 µM",88.2%
same,"viability, T/C","second compound 3.16 µM, first compound 0.00949 µM",71.6%
same,"viability, T/C","second compound 3.16 µM, first compound 0.03 µM",58%
same,"viability, T/C","second compound 3.16 µM, first compound 0.0949 µM",72.8%
same,"viability, T/C","second compound 3.16 µM, first compound 0.3 µM",48.6%
same,"viability, T/C","second compound 10 µM, first compound 0.000949 µM",93.8%
same,"viability, T/C","second compound 10 µM, first compound 0.003 µM",70.4%
same,"viability, T/C","second compound 10 µM, first compound 0.00949 µM",77.9%
same,"viability, T/C","second compound 10 µM, first compound 0.03 µM",75.4%
same,"viability, T/C","second compound 10 µM, first compound 0.0949 µM",49.1%
same,"viability, T/C","second compound 10 µM, first compound 0.3 µM",59.7%

# From PubChem BioAssay AID1918993 (Molecular Pharmacology Branch, DTP, NCI, 2023)
